According to patent US20200297711A1, “PHARMACEUTICAL COMPOSITION COMPRISING FGFR SELECTIVE TYROSINE KINASE INHIBITOR” (priority 2017, published 2020):
Marks after values point to notes of the source that are not given here.

Assay: Pharmacokinetics in plasma following single dose and repeated doses of Compound A 1.5 succinate
Assay type: in vivo, human
Settings: for AUC(0-t) / Cavg / Cmax / Cmin / tmax / tmax, median (minimum − maximum) / AUC(0-inf) / CL/F / t1/2: Compound A
Description: In order to evaluate the PK when administered as a single dose, a single dose of Compound A for each treatment group (at the corresponding dosage for that group) was administered on Day 1. Compound A was administered when fasted, immediately after waking up with at least 10 hours fasting. Taking any meal was prohibited for 2 hours after administration and only drinking water was allowed.
Cycle 1 was started between 8 and 10 days after dosing in Cycle 0 and Compound A was administered continuously once daily. Compound A was administered at least 2 hours after breakfast, and any food intake was prohibited for 1 hour after administration. However, on Day 8 of Cycle 1, Compound A was administered immediately after waking up while the subject was fasted after at least 10 hours of overnight fasting in order to evaluate the PK. Taking any meals was prohibited for 2 hours after administration and only drinking water was allowed.
Plasma concentration profile of Compound A following a single dose and repeated doses of Compound A 1.5 succinate are shown in FIG. 1 and FIG. 2, respectively. The profile shown in FIG. 2 is that at steady state.
(§1) The pharmacokinetic parameters of Compound A following the single dose and repeated doses of Compound A 1.5 succinate are shown in the following table. The pharmacokinetic parameters of Compound A following repeated doses of Compound A 1.5 succinate shown below are those at steady state.
as §1, with “1.5 succinate updated after obtaining the above data are shown” for “1.5 succinate are shown”
The pharmacokinetic parameters of Compound B following the single dose and repeated doses of Compound A 1.5 succinate are shown in the following table. The pharmacokinetic parameters of Compound B following repeated doses of Compound A 1.5 succinate shown below are those at steady state.

[1] = repeated once-daily doses 30 mg, steady state (n = 2), Table 4
[2] = repeated once-daily doses 30 mg, steady state (n = 2), Table 5 (updated)
[3] = repeated once-daily doses 60 mg, steady state (n = 2), Table 4
[4] = repeated once-daily doses 60 mg, steady state (n = 2), Table 5 (updated)
[5] = repeated once-daily doses 100 mg, steady state (n = 3), Table 4
[6] = repeated once-daily doses 100 mg, steady state (n = 3), Table 5 (updated)
[7] = repeated once-daily doses 140 mg, steady state (n = 3), Table 4
[8] = repeated once-daily doses 140 mg, steady state (n = 3), Table 5 (updated)
[9] = repeated once-daily doses 180 mg, steady state (n = 3), Table 4
[10] = repeated once-daily doses 180 mg, steady state (n = 3), Table 5 (updated)
[11] = single dose 30 mg (n = 2), Table 4
[12] = single dose 30 mg (n = 2), Table 5 (updated)
[13] = single dose 60 mg (n = 3), Table 4
[14] = single dose 60 mg (n = 3), Table 5 (updated)
[15] = single dose 100 mg (n = 3), Table 4
[16] = single dose 100 mg (n = 3), Table 5 (updated)
[17] = single dose 140 mg (n = 3), Table 4
[18] = single dose 140 mg (n = 3), Table 5 (updated)
[19] = single dose 180 mg (n = 3), Table 4
[20] = single dose 180 mg (n = 3), Table 5 (updated)

CNC(=O)n1ccc2cc(Oc3ccnc(NC(=O)c4ccc(C5CCN(CCO)CC5)cc4)c3)c(OCCOC)cc21 [Compound A, 5-((2-(4-(1-(2-hydroxyethyl)piperidin-4-yl)benzamide)pyridin-4-yl)oxy)-6-(2-methoxyethoxy)-N-methyl-1H-indole-1-carboxamide]
metabolism in human subjects (Compound A administered to human subjects): metabolized in the body to produce Compound B
AUC(0-t) [1]: 158 ng·h/mL
Cavg [1]: 6.58 ng/mL
Cmax [1]: 13.3 ng/mL
Cmin [1]: 2.48 ng/mL
tmax [1]: 4 (3-5) h
AUC(0-t) [2]: 162 ng·h/mL
Cavg [2]: 6.75 ng/mL
Cmax [2]: 13.3 ng/mL
Cmin [2]: 4.50 ng/mL
tmax, median (minimum − maximum) [2]: 3.99 (3.00-4.97) h
AUC(0-t) [3]: 499^a^ h · ng/mL
Cavg [3]: 20.8^a ng/mL
Cmax [3]: 50.5^a ng/mL
Cmin [3]: 8.28^a ng/mL
tmax [3]: 2.5 (2-3)^a h
AUC(0-t) [4]: 507^a^ h · ng/mL
Cavg [4]: 21.1^a ng/mL
Cmax [4]: 50.5^a ng/mL
Cmin [4]: 11.0^a ng/mL
tmax, median (minimum − maximum) [4]: 2.54 (2.07-3.00) ^a h
AUC(0-t) [5]: 1330 ± 417 ng·h/mL
Cavg [5]: 55.2 ± 17.3 ng/mL
Cmax [5]: 116 ± 3.79 ng/mL
Cmin [5]: 18.7 ± 7.95 ng/mL
tmax [5]: 3 (2-5) h
AUC(0-t) [6]: 1340 ± 437 ng·h/mL
Cavg [6]: 55.91 ± 8.2 ng/mL
Cmax [6]: 116 ± 3.79 ng/mL
Cmin [6]: 22.3 ± 8.48 ng/mL
tmax, median (minimum − maximum) [6]: 2.97 (2.03-5.00) h
AUC(0-t) [7]: 4700 ± 3380 ng·h/mL
Cavg [7]: 196 ± 141 ng/mL
Cmax [7]: 372 ± 173 ng/mL
Cmin [7]: 101 ± 94.5 ng/mL
tmax [7]: 5 (3-5) h
AUC(0-t) [8]: 4700 ± 3380 ng·h/mL
Cavg [8]: 196 ± 141 ng/mL
Cmax [8]: 372 ± 173 ng/mL
Cmin [8]: 117 ± 116 ng/mL
tmax, median (minimum − maximum) [8]: 5.00 (2.98-5.08) h
AUC(0-t) [9]: 3850 ± 777 ng·h/mL
Cavg [9]: 161 ± 32.3 ng/mL
Cmax [9]: 337 ± 60.3 ng/mL
Cmin [9]: 61.4 ± 19.9 ng/mL
tmax [9]: 5 (3-5) h
AUC(0-t) [10]: 3860 ± 764 ng·h/mL
Cavg [10]: 161 ± 32.3 ng/mL
Cmax [10]: 337 ± 60.3 ng/mL
Cmin [10]: 64.8 ± 19.4 ng/mL
tmax, median (minimum − maximum) [10]: 5.00 (3.05-5.08) h
AUC(0-inf) [11]: 236 ng·h/mL
AUC(0-t) [11]: 220 ng·h/mL
CL/F [11]: 128 L/h
Cmax [11]: 28.1 ng/mL
t1/2 [11]: 22.8 h
tmax [11]: 3 (1-5) h
AUC(0-inf) [12]: 239 ng·h/mL
AUC(0-t) [12]: 222 ng·h/mL
CL/F [12]: 127 L/h
Cmax [12]: 28.1 ng/mL
t1/2 [12]: 22.7 h
tmax, median (minimum − maximum) [12]: 3.04 (0.93-5.15) h
AUC(0-inf) [13]: 551 ± 240 ng·h/mL
AUC(0-t) [13]: 529 ± 250 ng·h/mL
CL/F [13]: 122 ± 42.5 L/h
Cmax [13]: 38.7 ± 4.69 ng/mL
t1/2 [13]: 23.1 ± 7.65 h
tmax [13]: 3 (3-5) h
AUC(0-inf) [14]: 554 ± 247 ng·h/mL
AUC(0-t) [14]: 533 ± 257 ng·h/mL
CL/F [14]: 121 ± 43.1 L/h
Cmax [14]: 38.7 ± 4.69 ng/mL
t1/2 [14]: 23.1 ± 7.63 h
tmax, median (minimum − maximum) [14]: 3.00 (2.97-4.98)^ h
AUC(0-inf) [15]: 1120 ± 488 ng·h/mL
AUC(0-t) [15]: 1090 ± 483 ng·h/mL
CL/F [15]: 103 ± 48.9 L/h
Cmax [15]: 85.9 ± 30.8 ng/mL
t1/2 [15]: 15.1 ± 1.77 h
tmax [15]: 5 (3-5) h
AUC(0-inf) [16]: 1120 ± 479 ng·h/mL
AUC(0-t) [16]: 1080 ± 474 ng·h/mL
CL/F [16]: 103 ± 48.2 L/h
Cmax [16]: 85.9 ± 30.8 ng/mL
t1/2 [16]: 15.2 ± 1.84 h
tmax, median (minimum − maximum) [16]: 4.95 (2.97-5.10) h
AUC(0-inf) [17]: 4000 ± 3340 ng·h/mL
AUC(0-t) [17]: 3900 ± 3230 ng·h/mL
CL/F [17]: 60.4 ± 51.6 L/h
Cmax [17]: 227 ± 118.0 ng/mL
t1/2 [17]: 26.4 ± 12.2 h
tmax [17]: 5 (3-5) h
AUC(0-inf) [18]: 4050 ± 3340 ng·h/mL
AUC(0-t) [18]: 3960 ± 3230 ng·h/mL
CL/F [18]: 59.0 ± 50.2 L/h
Cmax [18]: 227 ± 118 ng/mL
t1/2 [18]: 26.4 ± 12.4 h
tmax, median (minimum − maximum) [18]: 4.88 (3.00-5.08) h
AUC(0-inf) [19]: 2570 ± 907 ng·h/mL
AUC(0-t) [19]: 2540 ± 924 ng·h/mL
CL/F [19]: 75.0 ± 22.0 L/h
Cmax [19]: 154 ± 38.4 ng/mL
t1/2 [19]: 23.6 ± 10.2 h
tmax [19]: 2 (2-5) h
AUC(0-inf) [20]: 2610 ± 921 ng·h/mL
AUC(0-t) [20]: 2570 ± 933 ng·h/mL
CL/F [20]: 74.2 ± 21.8 L/h
Cmax [20]: 154 ± 38.4 ng/mL
t1/2 [20]: 23.7 ± 10.4 h
tmax, median (minimum − maximum) [20]: 2.12 (1.95-5.00) h
